Test results reported in US9856508B2, “Chemiluminescent compositions, methods, assays and kits for oxidative enzymes” (LIFE TECHNOLOGIES CORPORATION, priority 2010, dated 2018).

Test system: CYP2C19
Experiment: Isozyme specificity of AMPPD-Bn in pooled human liver microsomes (HLMs)
Format: biochemical
Settings: FIG. 4B, 25 min, 25° C., 20 μM AMPPD-Bn, 100 mM potassium phosphate buffer, pH 7.4
Procedure: FIG. 4A and FIG. 4B compare CYP450 isozyme specificity of 1,2-dioxetane substrate AMPPD-Bn in recombinant human microsomes (rhCYPs) and human liver microsomes. FIG. 4A is a graphic representation of isozyme specificity of AMPPD-Bn in rhCYP microsomes. Assays were performed at 25° C. for 25 min using 10 μM AMPPD-Bn, 5 nM rhCYP450 and isozyme-preferred potassium phosphate buffer, pH 7.4. […] FIG. 4B is a graphic representation of isozyme specificity of AMPPD-Bn in pooled human liver microsomes (HLMs). Assays were performed for 25 min at 25° C. using 20 μM AMPPD-Bn and 100 mM potassium phosphate buffer, pH 7.4. Positive (3A4) and negative (2C19, 2D6 and microsome only) controls were performed using 5 nM rhCYP450 microsomes. Pooled HLMs were assayed at 0.5, 0.25, 0.125, or 0.0625 mg/ml. Assays were performed either with or without 2 μM ketoconazole to indicate CYP3A family specificity. […] All assays were performed using the 2-step assay method (Example 48, Format A).
The protocol follows the 2-Step endpoint assay format described in Example 48 (Format A). […] The assays are incubated for either 10 to 25 min before addition of Accelerator and reading of luminescent signal on a luminometer. For relative quantification, samples can be compared to a standard curve of known enzyme concentration, bearing in mind that recombinant enzyme can not fully compare to native enzyme. […]

With COC1(c2cccc(OCc3ccccc3)c2)OOC12C1CC3CC(C1)CC2C3 (stereo not shown) [AMPPD-Bn] the “contribution of CYP2C19 activity to AMPPD-Bn oxidation in HLMs” value was “does not significantly contribute”.
